From patent publication US5712274A, “Thienotriazolodiazepine compounds and their pharmaceutical use” (Yoshitomi Pharmaceutical Industries, Ltd., priority 1995, dated 1998)

Key:
VCAM-1 = assay: Inhibitory effect on TNF-α-induced expression of VCAM-1 in HUVECs; format: cell-based; settings: Homo sapiens, HUVEC; HUVECs, TNF-α 20 U/ml, 5 hr; read-out: Inhibitory effect (IC50) on CAM-1 expression
Description: Inhibitory effect on expression of VCAM-1 and ELAM-1 in human umbilical vein-derived endothelial cells (HUVECs)
HUVECs were suspended in 199 medium containing 20% FCS, 20 μg/ml endothelial cell growth factor derived from bovine brain, and 100 μg/ml heparin, plated into 96-well microculture plates coated with collagen, and cultured at 37° C. in 5% CO2. When cells were grown to confluence, the cells received tumour necrosis factor (TNF)-α (20 U/ml for VCAM-1 expression, 100 U/ml for ELAM-1 expression) and cultured for 5 hr. After the cells were washed once with 199 medium, mouse anti-human VCAM-1 monoclonal antibody (2 μg/ml) or rat anti-human ELAM-1 monoclonal antibody (2 μg/ml) was added, and the cells were incubated for 1 hr at room temperature. After the cells were washed twice, peroxidase-conjugated anti-mouse immunoglobulin antibody or anti-rat immunoglobulin antibody was added, and the cells were incubated for 1 hr at room temperature. After the cells were washed 3 times, 2,2'-azino-bis(3-ethylbenzothiazolone-6-sulfonic acid) was added. After the plates were stood for 15 min at room temperature, absorbance at 405 nm with a reference wave length of 490 nm was measured with a 96-well microplate reader and was regarded as a indicator of VCAM-1 or ELAM-1 expression.

[1] = system: thioglycollate (TG) medium-induced infiltration of leukocytes; assay: Effect on thioglycollate (TG) medium-induced infiltration of leukocytes; format: in vivo, BALB/c mice; settings: TG medium 1 ml, day 4
Description: Effect on thioglycollate (TG) medium-induced infiltration of leukocytes
One ml of TG medium was injected into peritoneal cavity of BALB/c mice on day 0. On day 4, leukocytes infiltrating into the peritoneal cavity were collected with 3 ml of phosphatebuffered saline containing 0.02% EDTA and the density of leukocytes (cells/ml) was counted with an automatic blood cell counter. Total number of leukocytes (X) was calculated from the density of leukocytes (A) with the following formula.
Test compounds were suspended in 0.5% hydroxypropylmethyl-cellulose solution and administered p.o. (0.1 ml/10 g body weight) on days 0 to 3.

glomerulonephritis = assay: Effect on glomerulonephritis in mice (anti-GBM antiserum); format: in vivo, female C57BL/6 mice; settings: 12 days after anti-GBM antiserum, 0-5 points
Description: Effect on glomerulonephritis in mice
Rabbit immunoglobulin G solution (4 mg/ml in saline) was mixed with Freund's complete adjuvant at a ratio of 1:1 and the emulsion was prepared. The emulsion was injected into peritoneal cavity of female C57BL/6 mice (0.25 ml/mouse). After 5 days, rabbit anti-mouse glomerular basement membrane (GBM) antiserum obtained by the method of Nagai et al. (Japan. J. Pharmacol., 32, 1117, 1982) was administered i.v. (0.08 ml/mouse). […] Test compounds were suspended in 0.5% hydroxypropylmethylcellulose (HPMC) solution and administered p.o. (0.1 ml/10 g body weight) for 13 days beginning on the day of anti-GBM ant-serum injection.

TNBS-induced colitis = assay: Effect on TNBS-induced colitis model in rats (oral administration); format: in vivo, SD rats; settings: for Intestinal weight (mean ± S.D.) / MPO activity (mean ± S.D.): TNBS, 7 days
Description: Effect on trinitrobenzenesufonic acid (TNBS)-induced colitis model in rats
Colitis was induced by intrarectal injection of TNBS solution (60 mg/ml in 50% EtOH, 500 μl/rat) to SD rats. Seven days later, rats were sacrificed and large intestine (8 cm from anus) was cut off and weighed. Myeloperoxidase (MPO) activity in the intestinal tissue was measured as follows and taken as an indicator of leukocyte infiltration: the intestinal tissue was homogenized and a cycle of freeze-thawing of the tissue was repeated 3 times. The supernatant obtained by centrifugation was assayed for MPO activity with substrate for peroxidase (o-phenylenediamine). MPO activity in the supernatant was calculated with the commercial MPO as a standard. The increases in intestinal weight and MPO activity as described above were taken as indicators of colitis. Test compound was suspended in 0.5% hydroxypropylmethylcellulose solution and administered p.o. (0.1 ml/10 g body weight) for 5 days beginning on the day of TNBS injection.

[2] = system: lipopolysaccharide (LPS)-induced adhesion of leukocytes; assay: Effect on lipopolysaccharide (LPS)-induced adhesion of leukocytes; format: in vivo, BALB/c mice; settings: 6 hr after LPS
From the text: Effect on lipopolysaccharide (LPS)-induced adhesion of leukocytes
It has been reported that, by the administration of LPS to mice, an adhesion molecule, Mac-1-dependent leukocyte adhesion is induced, the leukocytes infiltrate into lung, liver and so on, and in result the number of peripheral blood leukocytes reduces (Morisaki et al., Clin. Immunol. Immunopathol., 61, 365-375, 1991). The effect on LPS-induced leukocyte adhesion was investigated by taking the reduction of peripheral blood leukocytes as an indicator of leukocyte adhesion.
LPS solution (50 ng/ml in saline, 0,5 ml/mouse) was injected into peritoneal cavity of BALB/c mice on day 0. Six hr after the LPS injection, the number of peripheral blood leukocytes was counted with an automatic blood cell counter. Test compounds were suspended in 0.5% hydroxypropylmethylcellulose solution and administered p.o. (0.1 ml/10 g body weight) on days -4 to 0.

[3] = system: antigen induced Eosinophils accumulation into lungs; assay: Effect on antigen induced eosinophils accumulation into lungs in actively sensitized guinea pigs; format: in vivo, male Dunkin-Hartley guinea pigs; settings: 30 mg/kg p.o., BALF 24 h after antigen exposure
Description: Effect on antigen induced Eosinophils accumulation into lungs in actively sensitized guinea pigs
Male Dunkin-Hartley guinea pigs (4W, Japan SLC, Inc.) were used throughout this study.
Sensitized animals were orally administered (p.o.) with compound or solvent (0.5% hydroxymethylcellulose) 30 min. before final sensitization, 30 min. before antigen exposure and 4.5 h after antigen exposure.
Egg albumin (EA, 10 μg) was added to AI(OH)3 (10 mg) in sterile physiological saline (0.5 ml) and mixed in a blender. This mixture was injected intraperitoneally into recipients. And after 14 days and 21 days, the procedure was repeated. Seven days after the final sensitization procedure, Mepyramine 10 mg/kg was injected intraperitoneally into the sensitized animals. After 30 min., the animals were exposed to aerosol of 1% EA in sterile physiological saline for 5 min.
24 h after antigen exposure, the animals were killed by exsanguination and tracheae were cannulated. And the lungs were lavaged three times with 10 ml of sterile physiological saline. Lavage fluid (BALF) was centrifuged (800 rpm for 10 min. at 4° C.) and the cell pellet was resuspended in 10 ml of sterile physilolgical saline and total cell numbers in BALF were counted in a hemocytometer (MEK 4200, Nihon-kohden, Ltd.). Differential cell counts were made from centrifuged preparations stained with May-Giemsa stain.

## CNC(=O)C[C@@H]1N=C(c2ccc(Cl)cc2)c2c(sc(C)c2C)-n2c(C)nnc21 [Example 1, (S)-N-methyl-4-(4-chloro-phenyl)-2,3,9-trimethyl-6H-thieno[3,2-f][1,2,4]triazolo[4,3-a]-[1,4]diazepine-6-acetamide 1/4 hydrate]
VCAM-1
  IC50: 25 nM
[1]; 0.03 mg/kg/day p.o.
  Total number of leukocytes (mean ± S.D.): 1059 ± 285 × 10^4
[1]; 0.1 mg/kg/day p.o.
  Total number of leukocytes (mean ± S.D.): 719 ± 308 × 10^4
[1]; 0.3 mg/kg/day p.o.
  Total number of leukocytes (mean ± S.D.): 442 ± 117 × 10^4
glomerulonephritis; 1 mg/kg/day p.o.
  Score (mean ± S.D.) of protein level in urine: 2.56 ± 0.53
glomerulonephritis; 3 mg/kg/day p.o.
  Score (mean ± S.D.) of protein level in urine: 2.22 ± 0.67
TNBS-induced colitis; 0.3 mg/kg/day p.o.
  Intestinal weight (mean ± S.D.): 1328.6 ± 1411.4 mg
  MPO activity (mean ± S.D.): 1.389 ± 2.806 U/ml
TNBS-induced colitis; 1 mg/kg/day p.o.
  Intestinal weight (mean ± S.D.): 574.2 ± 93.1 mg
  MPO activity (mean ± S.D.): 0.221 ± 0.020 U/ml
TNBS-induced colitis; p.o., Tables 6A and 6B
  Effect on intestinal weight and leukocyte infiltration in colitis (in words): significantly inhibit the increase in intestinal weight and the leukocyte infiltration caused by colitis in rats
[2]; 0.3 mg/kg/day p.o.
  Number of peripheral blood leukocytes (mean ± S.D.): 32 ± 5 × 100/μl
[2]; 1 mg/kg/day p.o.
  Number of peripheral blood leukocytes (mean ± S.D.): 50 ± 15 × 100/μl
[2]; 3 mg/kg/day p.o.
  Number of peripheral blood leukocytes (mean ± S.D.): 61 ± 13 × 100/μl
[3]
  Number of eosinophils: 7.0 ± 1.4 × 10^6
